{"source": "paper PMC3197600", "about": "(PLoS Pathogens, 2011)", "origin": "cited, not measured here", "test_system": "oseltamivir-resistant His274Tyr H1N1 infection", "details": "human, in vivo; cited from earlier work", "data": [{"compound": "[H]/N=C(\\N)N[C@H]1C=C(C(=O)O)O[C@@H]([C@H](OC)[C@H](O)COC(=O)CCCCCCC)[C@@H]1NC(C)=O", "note": "[CS-8958, laninamivir octanoate]", "values": [{"measurement": "effectiveness compared with oseltamivir", "result": "not significantly better than oseltamivir"}]}]}
